Read-outs that look alike come from different tables or passages of the source.
Legend:
[1] = target: DCN1 (DCUND1) protein PONY domain (Homo sapiens (Human), UniProt Q96GG9); assay: TR-FRET assay, DCN1 binding with FAM-labeled probe
In short: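 Biotinylated DCN1 PONY domain, labeled with streptavidin-Tb, was competed against a FAM-labeled non-covalent DCN1 inhibitor probe in buffer with TritonX and 200 mM NaCl. Conditions were 5 nM DCN1 with 20 nM FAM-probe, or 0.31 nM DCN1 with 100 nM FAM-plus 800 nM unlabeled probe. The TR-FRET ratio was read at 1, 5 and 24 h (0.1% DMSO).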

[2] = tested on: Cullin-3 (CUL3) neddylation; assay: AlphaLISA assay for Cullin-3 (CUL3) neddylation in TF 1 cells; type: cell-based; settings: 3 hours treatment
In short: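 TF 1 cells in unsupplemented IMDM treated with compound concentrations for 3 h, then lysed. CUL3 neddylation detected by AlphaLISA (biotinylated anti-NEDD8, anti-CUL3 acceptor beads overnight, streptavidin donor beads 1 h); normalized to vehicle (0%) and 1 μM DI-1548 (100%), IC50 from Hill fits.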

[3] = 24 hr after treatment with compound, read-out: TR FRET IC50 24 hr
[4] = TR FRET IC50 1 hr (nM), 1 hr after treatment with compound
[5] = read-out: TR FRET IC50 1 hr, 1 hr after treatment with compound

DCN1 (DCUND1) protein PONY domain, sequence (Q96GG9 60-248): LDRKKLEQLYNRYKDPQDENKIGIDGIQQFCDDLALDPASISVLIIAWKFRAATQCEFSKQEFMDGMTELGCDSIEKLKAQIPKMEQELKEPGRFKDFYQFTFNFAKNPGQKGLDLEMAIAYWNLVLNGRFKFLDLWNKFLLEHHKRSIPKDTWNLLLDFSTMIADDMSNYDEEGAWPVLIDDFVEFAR

SMILES	IC50 [1, 3]	IC50 [1, 4]	IC50 ([2]; Homo sapiens, TF-1, 3 h)	IC50 [2]	IC50 [1, 5]	IC50 ([2]; Homo sapiens)
CCN1C(=O)[C@H](NC(=O)c2cccc(C(F)(F)F)c2)[C@H](c2ccc(F)cc2)c2c(C(=O)N3CCC[C@H]3C#N)nn(-c3cccc(OCCN4CCC5(CC4)COC5)c3)c21 [Compound I-616]	1000 to 3000 nM	1000 to 3000 nM	> 1000 nM	–	–	–
CCN1C(=O)[C@@H](NC(=O)c2cccc(C(F)(F)F)c2)[C@@H](C2CC2)c2c(C(=O)N(CC#N)C3CC3)nn(-c3ccccc3)c21 [Compound I-619]	≤ 200 nM	1000 to 3000 nM	100 to 1000 nM	–	–	–
CCN1C(=O)[C@@H](NC(=O)c2cccc(C(F)(F)F)c2)[C@@H](C2CC2)c2c(C(=O)N3[C@H](C)CC[C@H]3C#N)nn(C3CCOCC3)c21 [Compound I-621]	1000 to 3000 nM	1000 to 3000 nM	> 1000 nM	–	–	–
CCN1C(=O)[C@@H](NC(=O)c2cccc(C(F)(F)F)c2)[C@@H](c2ccc(F)cc2)c2c(CN3C(=O)CC[C@H]3C#N)nn(-c3ccccc3)c21 [Compound I-622, N-((4S,5S)-3-(((S)-2-cyano-5-oxopyrrolidin-1-yl)methyl)-7-ethyl-4-(4-fluorophenyl)-6-oxo-1-phenyl-4,5,6,7-tetrahydro-1H-pyrazolo[3,4-b]pyridin-5-yl)-3-(trifluoromethyl)benzamide]	1000 to 3000 nM	1000 to 3000 nM	> 1000 nM	–	–	–
CCN1C(=O)[C@@H](NC(=O)c2cccn(C3CC3)c2=O)[C@@H](C2CC2)c2c(C(=O)N3[C@H](C#N)C[C@H]4C[C@H]43)nn(C3CCOCC3)c21 [Compound I-624]	200 to 1000 nM	200 to 1000 nM	–	≤ 100 nM	–	–
CCN1C(=O)[C@@H](NC(=O)c2cccn(C3CC3)c2=O)[C@@H](C2CC2)c2c(C(=O)N3[C@H](C#N)C[C@H]4C[C@H]43)nn(C3CCOCC3)c21 [Compound I-625]	1000 to 3000 nM	1000 to 3000 nM	–	> 1000 nM	–	–
CCN1C(=O)[C@@H](NC(=O)c2cccc(C(F)(F)F)c2)[C@@H](C2CC2)c2c(C(=O)N3CC(=O)C[C@H]3C#N)nn(C3CCOCC3)c21 [Compound I-626, N-((4S,5S)-3-((S)-2-cyano-4-oxopyrrolidine-1-carbonyl)-4-cyclopropyl-7-ethyl-6-oxo-1-(tetrahydro-2H-pyran-4-yl)-4,5,6,7-tetrahydro-1H-pyrazolo[3,4-b]pyridin-5-yl)-3-(trifluoromethyl)benzamide]	≤ 200 nM	–	≤ 100 nM	–	≤ 200 nM	–
CCN1C(=O)[C@@H](NC(=O)COc2ccccc2)[C@@H](C2CC2)c2c(C(=O)N3[C@H](C#N)C[C@H]4C[C@H]43)nn(C3CCOCC3)c21 [Compound I-628]	1000 to 3000 nM	1000 to 3000 nM	100 to 1000 nM	–	–	–
CCN1C(=O)[C@@H](NC(=O)CN2CC(c3ccccc3)CC2=O)[C@@H](C2CC2)c2c(C(=O)N3[C@H](C#N)C[C@H]4C[C@H]43)nn(C3CCOCC3)c21 (stereo partly drawn) [Compound I-629]	1000 to 3000 nM	1000 to 3000 nM	> 1000 nM	–	–	–
CCN1C(=O)[C@@H](NC(=O)c2cccc(C(F)(F)F)c2)[C@@H](c2ccc(F)cc2)c2c(C(=O)N3CCC=C3C#N)nn(C3CCOCC3)c21 [Compound I-631, N-((4S,5S)-3-(5-cyano-2,3-dihydro-1H-pyrrole-1-carbonyl)-7-ethyl-4-(4-fluorophenyl)-6-oxo-1-(tetrahydro-2H-pyran-4-yl)-4,5,6,7-tetrahydro-1H-pyrazolo[3,4-b]pyridin-5-yl)-3-(trifluoromethyl)benzamide]	≤ 200 nM	200 to 1000 nM	100 to 1000 nM	–	–	–
CCN1C(=O)[C@@H](NC(=O)c2ccc3[nH]cnc3c2)[C@@H](C2CC2)c2c(C(=O)N3[C@H](C#N)C[C@H]4C[C@H]43)nn(C3CCOCC3)c21 [Compound I-632]	1000 to 3000 nM	1000 to 3000 nM	> 1000 nM	–	–	–
CCN1C(=O)[C@@H](NC(=O)c2cccc3c2CCCO3)[C@@H](C2CC2)c2c(C(=O)N3[C@H](C#N)C[C@H]4C[C@H]43)nn(C3CCOCC3)c21 [Compound I-633]	200 to 1000 nM	1000 to 3000 nM	100 to 1000 nM	–	–	–
CCN1C(=O)[C@@H](NC(=O)[C@@H]2CCN(Cc3ccccc3)C2)[C@@H](C2CC2)c2c(C(=O)N3[C@H](C#N)C[C@H]4C[C@H]43)nn(C3CCOCC3)c21 [Compound I-634]	1000 to 3000 nM	1000 to 3000 nM	> 1000 nM	–	–	–
CCN1C(=O)[C@@H](NC(=O)c2cccc(C(F)(F)F)c2)[C@@H](c2ccc(F)cc2)c2c(CNC/C=C/C(=O)OC(C)(C)C)nn(-c3ccccc3)c21 [Compound I-635]	≤ 200 nM	1000 to 3000 nM	100 to 1000 nM	–	–	–
CCN1C(=O)[C@@H](NC(=O)c2cccc(C(F)(F)F)c2)[C@@H](c2ccc(F)cc2)c2c(CN(C)C/C=C/C(=O)N(C)C)nn(-c3ccccc3)c21 [Compound I-638]	≤ 200 nM	–	> 1000 nM	–	≤ 200 nM	–
CCN1C(=O)[C@@H](NC(=O)c2nccc(C(F)(F)F)n2)[C@H](c2ccc(F)cc2)c2c(CC(=O)N(C)CC#N)nn(-c3ccccc3)c21 [Compound I-640, N-((4R,5S)-3-(2-((cyanomethyl)(methyl)amino)-2-oxoethyl)-7-ethyl-4-(4-fluorophenyl)-6-oxo-1-phenyl-4,5,6,7-tetrahydro-1H-pyrazolo[3,4-b]pyridin-5-yl)-4-(trifluoromethyl)pyrimidine-2-carboxamide]	1000 to 3000 nM	1000 to 3000 nM	100 to 1000 nM	–	–	–

SMILES	IC50 [1, 3]	IC50 [1, 4]	IC50 ([2]; Homo sapiens, TF-1, 3 h)	IC50 [2]	IC50 [1, 5]	IC50 ([2]; Homo sapiens)
CCN1C(=O)[C@@H](NC(=O)c2cccc(C(F)(F)F)c2)[C@H](c2ccc(F)cc2)c2c(CNC(=O)C(C)C#N)nn(-c3ccccc3)c21 (stereo partly drawn) [Compound I-641]	200 to 1000 nM	200 to 1000 nM	> 1000 nM	–	–	–
CCN1C(=O)[C@H](NC(=O)c2cccc(C(F)(F)F)c2)C(C2CC2)c2c(C(=O)N3CCC[C@H]3C#N)nn(-c3ccccc3)c21 (stereo partly drawn) [Compound I-642]	1000 to 3000 nM	1000 to 3000 nM	> 1000 nM	–	–	–
CCN1C(=O)[C@@H](NC(=O)c2cccc(C(F)(F)F)c2)[C@@H](c2ccc(F)cc2)c2c(CN(C#N)CCCN(C)C3COC3)nn(-c3ccccc3)c21 [Compound I-646]	≤ 200 nM	–	≤ 100 nM	–	≤ 200 nM	–
CCN1C(=O)[C@H](NC(=O)c2cccc(C(F)(F)F)c2)[C@H](c2ccc(F)cc2)c2c(C(=O)N3CCC[C@H]3C#N)nn(-c3cccc(OCCN4CC5(COC5)C4)c3)c21 [Compound I-647]	1000 to 3000 nM	1000 to 3000 nM	> 1000 nM	–	–	–
CCN1C(=O)[C@H](NC(=O)c2cccc(C(F)(F)F)c2)[C@H](c2ccc(F)cc2)c2c(C(=O)N3CCC[C@H]3C#N)nn(-c3cccc(OCCN4CCN(C5COC5)CC4)c3)c21 [Compound I-648]	1000 to 3000 nM	1000 to 3000 nM	> 1000 nM	–	–	–
CCN1C(=O)[C@@H](NC(=O)c2cccc(C(F)(F)F)c2)[C@@H](c2ccc(F)cc2)c2c(C(=O)N(C)[C@@H](C#N)CCN(C)C3COC3)nn(C3CCOCC3)c21 [Compound I-654]	≤ 200 nM	–	≤ 100 nM	–	≤ 200 nM	–
CCN1C(=O)[C@@H](NC(=O)c2csc3c2CCC(C)C3)[C@@H](C2CC2)c2c(C(=O)N3[C@H](C#N)C[C@H]4C[C@H]43)nn(C3CCOCC3)c21 (stereo partly drawn) [Compound I-656]	≤ 200 nM	–	–	–	≤ 200 nM	≤ 100 nM
CCN1C(=O)[C@@H](NC(=O)c2cccc(C(F)(F)F)c2)[C@@H](C2CC2)c2c(C(=O)N3CCOC[C@@H]3C#N)nn(-c3ccccc3)c21 [Compound I-658]	200 to 1000 nM	1000 to 3000 nM	> 1000 nM	–	–	–
CCN1C(=O)[C@@H](NC(=O)c2cccc(C(F)(F)F)c2)[C@@H](C2CC2)c2c(C(=O)N3CCS(=O)(=O)C[C@H]3C#N)nn(-c3ccccc3)c21 [Compound I-659, N-((4S,5S)-3-((R)-3-cyano-1,1-dioxidothiomorpholine-4-carbonyl)-4-cyclopropyl-7-ethyl-6-oxo-1-phenyl-4,5,6,7-tetrahydro-1H-pyrazolo[3,4-b]pyridin-5-yl)-3-(trifluoromethyl)benzamide]	≤ 200 nM	–	≤ 100 nM	–	≤ 200 nM	–
CCN1C(=O)[C@@H](NC(=O)C23CC(C(F)F)(C2)C3)[C@@H](C2CC2)c2c(C(=O)N3[C@H](C#N)C[C@H]4C[C@H]43)nn(C3CCOCC3)c21 [Compound I-662]	1000 to 3000 nM	1000 to 3000 nM	> 1000 nM	–	–	–
CCN1C(=O)[C@@H](NC(=O)c2cccc(C(F)(F)F)c2)[C@@H](C2CC2)c2c(C(=O)N(C)[C@@H](C#N)CCN(C)C3COC3)nn(C3CCOCC3)c21 [Compound I-664]	200 to 1000 nM	200 to 1000 nM	100 to 1000 nM	–	–	–
CCN1C(=O)[C@H](NC(=O)c2cccc(C(F)(F)F)c2)[C@H](C2CC2)c2c(C(=O)N3CCC[C@H]3C#N)nn(C3CCOCC3)c21 [Compound I-666]	1000 to 3000 nM	1000 to 3000 nM	> 1000 nM	–	–	–
CCN1C(=O)[C@@H](NC(=O)c2ccc3cc[nH]c3c2)[C@@H](C2CC2)c2c(C(=O)N3[C@H](C#N)C[C@H]4C[C@H]43)nn(C3CCOCC3)c21 [Compound I-667]	≤ 200 nM	200 to 1000 nM	≤ 100 nM	–	–	–
CCN1C(=O)[C@@H](NC(=O)c2ccc3nonc3c2)[C@@H](C2CC2)c2c(C(=O)N3[C@H](C#N)C[C@H]4C[C@H]43)nn(C3CCOCC3)c21 [Compound I-668]	1000 to 3000 nM	1000 to 3000 nM	100 to 1000 nM	–	–	–
CCN1C(=O)[C@@H](NC(=O)c2ccc3ncsc3c2)[C@@H](C2CC2)c2c(C(=O)N3[C@H](C#N)C[C@H]4C[C@H]43)nn(C3CCOCC3)c21 [Compound I-669]	200 to 1000 nM	1000 to 3000 nM	100 to 1000 nM	–	–	–

From patent US20250163057A1, “DCN-1 MODULATING COMPOUNDS AND METHODS OF USE THEREOF” (Cellarity, Inc., priority 2023, published 2025)
